Results from article PMC6437697 (Journal of Medicinal Chemistry, 2019).

Columns and labels:
Assay in all cases: KINOMEscan
Assay type in all cases: binding
Details in all cases: read-out: % control activity remaining
BMPR1B = target: T1, BMPR1B (Homo sapiens, UniProt O00238)
T1 construct: purchased Eurofins DiscoverX KINOMEscan

CDC2L1 = target: T2, CDC2L1 (Homo sapiens, UniProt P21127)
T2 construct: purchased Eurofins DiscoverX KINOMEscan

CDK3 = target: T3, CDK3 (Homo sapiens, UniProt Q00526)
T3 construct: purchased Eurofins DiscoverX KINOMEscan

CSNK1G1 = target: T4, CSNK1G1 (Homo sapiens, UniProt Q9HCP0)
T4 construct: purchased Eurofins DiscoverX KINOMEscan

EGFR(L858R) = target: T5, EGFR(L858R) (Homo sapiens, UniProt P00533, L858R)
T5 construct: purchased Eurofins DiscoverX KINOMEscan

EPHB2 = target: T6, EPHB2 (Homo sapiens, UniProt P29323)
T6 construct: purchased Eurofins DiscoverX KINOMEscan
T6 sequence (P29323 19-1055): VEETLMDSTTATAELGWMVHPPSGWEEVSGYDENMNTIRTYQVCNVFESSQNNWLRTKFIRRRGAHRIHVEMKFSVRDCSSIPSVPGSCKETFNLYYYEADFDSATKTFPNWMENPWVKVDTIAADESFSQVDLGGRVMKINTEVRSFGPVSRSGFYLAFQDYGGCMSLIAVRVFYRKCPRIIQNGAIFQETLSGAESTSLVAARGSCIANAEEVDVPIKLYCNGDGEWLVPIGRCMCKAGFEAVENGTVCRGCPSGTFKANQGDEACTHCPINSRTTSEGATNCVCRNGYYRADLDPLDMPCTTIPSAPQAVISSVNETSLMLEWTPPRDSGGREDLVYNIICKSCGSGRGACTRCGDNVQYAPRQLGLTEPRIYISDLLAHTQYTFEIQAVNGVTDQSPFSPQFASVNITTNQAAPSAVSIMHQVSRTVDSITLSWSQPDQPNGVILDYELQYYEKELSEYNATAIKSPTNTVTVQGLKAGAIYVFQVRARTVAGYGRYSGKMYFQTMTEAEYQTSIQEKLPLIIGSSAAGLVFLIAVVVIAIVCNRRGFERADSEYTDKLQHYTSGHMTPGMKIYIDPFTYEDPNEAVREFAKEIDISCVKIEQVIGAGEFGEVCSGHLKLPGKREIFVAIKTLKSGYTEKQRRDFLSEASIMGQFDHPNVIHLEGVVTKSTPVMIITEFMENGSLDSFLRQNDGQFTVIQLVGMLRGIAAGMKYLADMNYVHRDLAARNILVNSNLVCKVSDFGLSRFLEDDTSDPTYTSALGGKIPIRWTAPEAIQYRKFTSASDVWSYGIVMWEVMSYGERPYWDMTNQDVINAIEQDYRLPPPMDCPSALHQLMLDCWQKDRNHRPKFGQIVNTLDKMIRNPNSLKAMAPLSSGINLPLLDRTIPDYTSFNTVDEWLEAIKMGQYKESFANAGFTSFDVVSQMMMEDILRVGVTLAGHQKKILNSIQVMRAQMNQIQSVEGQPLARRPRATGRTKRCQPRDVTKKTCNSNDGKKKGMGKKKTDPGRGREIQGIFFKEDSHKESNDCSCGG

EPHB6 = target: T7, EPHB6 (Homo sapiens, UniProt O15197)
T7 construct: purchased Eurofins DiscoverX KINOMEscan
T7 sequence (O15197 32-1021): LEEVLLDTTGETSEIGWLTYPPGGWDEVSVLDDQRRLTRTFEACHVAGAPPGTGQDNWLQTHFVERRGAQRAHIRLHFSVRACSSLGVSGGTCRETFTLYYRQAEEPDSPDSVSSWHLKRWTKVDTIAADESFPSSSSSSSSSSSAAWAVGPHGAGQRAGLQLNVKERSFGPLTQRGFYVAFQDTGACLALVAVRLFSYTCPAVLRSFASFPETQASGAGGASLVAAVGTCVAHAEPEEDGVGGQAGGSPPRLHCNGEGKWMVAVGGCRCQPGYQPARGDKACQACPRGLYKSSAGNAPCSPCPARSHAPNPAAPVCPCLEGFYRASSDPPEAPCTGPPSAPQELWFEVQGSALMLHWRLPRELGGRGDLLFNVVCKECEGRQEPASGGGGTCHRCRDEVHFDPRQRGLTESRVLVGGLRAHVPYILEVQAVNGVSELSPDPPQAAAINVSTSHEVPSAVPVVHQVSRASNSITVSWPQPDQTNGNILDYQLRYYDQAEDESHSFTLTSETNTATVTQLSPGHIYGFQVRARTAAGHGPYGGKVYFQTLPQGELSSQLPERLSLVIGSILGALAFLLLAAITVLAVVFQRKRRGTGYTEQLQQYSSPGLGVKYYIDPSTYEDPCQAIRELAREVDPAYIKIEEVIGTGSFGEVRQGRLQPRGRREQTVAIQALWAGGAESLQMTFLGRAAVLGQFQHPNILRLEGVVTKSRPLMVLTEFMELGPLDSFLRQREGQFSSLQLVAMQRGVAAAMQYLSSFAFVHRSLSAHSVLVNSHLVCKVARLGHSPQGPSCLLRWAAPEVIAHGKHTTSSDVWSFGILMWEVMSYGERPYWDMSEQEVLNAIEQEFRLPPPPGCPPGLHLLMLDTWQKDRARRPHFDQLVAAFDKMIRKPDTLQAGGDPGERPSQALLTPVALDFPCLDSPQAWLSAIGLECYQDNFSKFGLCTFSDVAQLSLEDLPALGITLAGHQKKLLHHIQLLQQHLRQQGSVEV

ERK2 = target: T8, ERK2 (Homo sapiens, UniProt P28482)
T8 construct: purchased Eurofins DiscoverX KINOMEscan

FGFR2 = target: T9, FGFR2 (Homo sapiens, UniProt P21802)
T9 construct: purchased Eurofins DiscoverX KINOMEscan

FRK = target: T10, FRK (Homo sapiens, UniProt P42685)
T10 construct: purchased Eurofins DiscoverX KINOMEscan

GSK3B = target: T11, GSK3B (Homo sapiens, UniProt P49841)
T11 construct: purchased Eurofins DiscoverX KINOMEscan

HPK1 = target: T12, HPK1 (Homo sapiens, UniProt Q92918)
T12 construct: purchased Eurofins DiscoverX KINOMEscan

KIT-autoinhibited = target: T13, KIT-autoinhibited (Homo sapiens, UniProt P10721)
T13 construct: purchased Eurofins DiscoverX KINOMEscan

LOK = target: T14, LOK (Homo sapiens, UniProt O94804)
T14 construct: purchased Eurofins DiscoverX KINOMEscan

RET(M918T) = target: T15, RET(M918T) (Homo sapiens, UniProt P07949, M918T)
T15 construct: purchased Eurofins DiscoverX KINOMEscan

RIOK2 = target: T16, RIOK2 (Homo sapiens, UniProt Q9BVS4)
T16 construct: purchased Eurofins DiscoverX KINOMEscan

T15 sequence (P07949 29-1114 M918T): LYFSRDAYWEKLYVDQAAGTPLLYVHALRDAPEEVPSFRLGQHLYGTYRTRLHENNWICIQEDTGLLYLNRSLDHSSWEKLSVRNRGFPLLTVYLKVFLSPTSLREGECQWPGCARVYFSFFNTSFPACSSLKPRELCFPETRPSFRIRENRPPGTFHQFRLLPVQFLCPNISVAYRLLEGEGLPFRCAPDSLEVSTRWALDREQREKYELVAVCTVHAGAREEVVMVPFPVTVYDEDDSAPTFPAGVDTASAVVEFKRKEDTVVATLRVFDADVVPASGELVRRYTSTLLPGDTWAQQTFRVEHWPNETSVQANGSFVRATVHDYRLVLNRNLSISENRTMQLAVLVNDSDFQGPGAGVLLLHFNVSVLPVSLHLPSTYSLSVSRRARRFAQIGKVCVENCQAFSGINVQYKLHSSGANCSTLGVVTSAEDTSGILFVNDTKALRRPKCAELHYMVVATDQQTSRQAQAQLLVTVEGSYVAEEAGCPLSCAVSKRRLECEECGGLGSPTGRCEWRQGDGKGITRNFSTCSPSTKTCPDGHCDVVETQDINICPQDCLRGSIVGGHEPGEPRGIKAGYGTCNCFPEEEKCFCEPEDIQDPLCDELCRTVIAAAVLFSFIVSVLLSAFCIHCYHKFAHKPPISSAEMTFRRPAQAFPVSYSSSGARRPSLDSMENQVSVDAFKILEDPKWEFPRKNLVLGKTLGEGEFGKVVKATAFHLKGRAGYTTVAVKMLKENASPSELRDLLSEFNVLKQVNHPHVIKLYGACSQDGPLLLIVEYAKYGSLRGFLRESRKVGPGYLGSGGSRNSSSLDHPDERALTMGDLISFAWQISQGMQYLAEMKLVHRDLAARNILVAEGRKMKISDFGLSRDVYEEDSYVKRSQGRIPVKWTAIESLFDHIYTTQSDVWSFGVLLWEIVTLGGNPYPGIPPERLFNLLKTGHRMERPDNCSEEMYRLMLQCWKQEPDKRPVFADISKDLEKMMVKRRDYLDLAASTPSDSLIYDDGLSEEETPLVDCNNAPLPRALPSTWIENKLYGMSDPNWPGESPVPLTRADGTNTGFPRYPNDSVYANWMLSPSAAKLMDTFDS
T9 sequence (P21802 22-821): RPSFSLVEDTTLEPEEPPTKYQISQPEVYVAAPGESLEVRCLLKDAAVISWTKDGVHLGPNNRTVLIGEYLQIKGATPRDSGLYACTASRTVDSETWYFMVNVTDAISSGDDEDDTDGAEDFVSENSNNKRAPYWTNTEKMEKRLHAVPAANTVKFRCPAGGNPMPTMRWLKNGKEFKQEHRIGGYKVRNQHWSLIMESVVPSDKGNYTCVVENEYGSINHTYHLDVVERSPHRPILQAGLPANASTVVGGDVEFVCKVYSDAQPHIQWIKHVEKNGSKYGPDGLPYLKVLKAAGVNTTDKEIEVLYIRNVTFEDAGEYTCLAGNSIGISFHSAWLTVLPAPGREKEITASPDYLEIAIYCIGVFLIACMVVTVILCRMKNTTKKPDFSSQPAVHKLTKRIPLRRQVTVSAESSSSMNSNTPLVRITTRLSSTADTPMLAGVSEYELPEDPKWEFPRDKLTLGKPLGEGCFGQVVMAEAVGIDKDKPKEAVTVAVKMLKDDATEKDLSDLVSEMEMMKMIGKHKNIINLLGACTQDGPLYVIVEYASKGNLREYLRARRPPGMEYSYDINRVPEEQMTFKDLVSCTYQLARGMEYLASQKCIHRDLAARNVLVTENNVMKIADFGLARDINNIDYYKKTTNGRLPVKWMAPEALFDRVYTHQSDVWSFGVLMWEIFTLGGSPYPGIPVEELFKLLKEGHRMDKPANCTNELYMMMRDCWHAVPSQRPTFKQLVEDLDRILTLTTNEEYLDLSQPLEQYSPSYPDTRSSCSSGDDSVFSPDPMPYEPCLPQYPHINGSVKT
T1 sequence (O00238 14-502): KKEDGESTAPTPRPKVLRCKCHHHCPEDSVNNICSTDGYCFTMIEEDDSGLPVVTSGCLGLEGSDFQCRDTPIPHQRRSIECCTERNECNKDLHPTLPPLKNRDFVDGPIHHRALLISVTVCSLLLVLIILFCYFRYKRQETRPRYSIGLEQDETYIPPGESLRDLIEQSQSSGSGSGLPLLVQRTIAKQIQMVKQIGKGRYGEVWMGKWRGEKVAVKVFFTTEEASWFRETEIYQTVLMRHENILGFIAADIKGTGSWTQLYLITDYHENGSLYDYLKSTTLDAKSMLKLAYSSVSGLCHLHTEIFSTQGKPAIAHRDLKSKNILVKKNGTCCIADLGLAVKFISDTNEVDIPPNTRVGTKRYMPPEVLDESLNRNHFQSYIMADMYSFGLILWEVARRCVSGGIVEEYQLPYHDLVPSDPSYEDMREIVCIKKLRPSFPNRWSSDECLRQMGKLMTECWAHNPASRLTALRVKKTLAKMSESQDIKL
T13 sequence (P10721 26-976): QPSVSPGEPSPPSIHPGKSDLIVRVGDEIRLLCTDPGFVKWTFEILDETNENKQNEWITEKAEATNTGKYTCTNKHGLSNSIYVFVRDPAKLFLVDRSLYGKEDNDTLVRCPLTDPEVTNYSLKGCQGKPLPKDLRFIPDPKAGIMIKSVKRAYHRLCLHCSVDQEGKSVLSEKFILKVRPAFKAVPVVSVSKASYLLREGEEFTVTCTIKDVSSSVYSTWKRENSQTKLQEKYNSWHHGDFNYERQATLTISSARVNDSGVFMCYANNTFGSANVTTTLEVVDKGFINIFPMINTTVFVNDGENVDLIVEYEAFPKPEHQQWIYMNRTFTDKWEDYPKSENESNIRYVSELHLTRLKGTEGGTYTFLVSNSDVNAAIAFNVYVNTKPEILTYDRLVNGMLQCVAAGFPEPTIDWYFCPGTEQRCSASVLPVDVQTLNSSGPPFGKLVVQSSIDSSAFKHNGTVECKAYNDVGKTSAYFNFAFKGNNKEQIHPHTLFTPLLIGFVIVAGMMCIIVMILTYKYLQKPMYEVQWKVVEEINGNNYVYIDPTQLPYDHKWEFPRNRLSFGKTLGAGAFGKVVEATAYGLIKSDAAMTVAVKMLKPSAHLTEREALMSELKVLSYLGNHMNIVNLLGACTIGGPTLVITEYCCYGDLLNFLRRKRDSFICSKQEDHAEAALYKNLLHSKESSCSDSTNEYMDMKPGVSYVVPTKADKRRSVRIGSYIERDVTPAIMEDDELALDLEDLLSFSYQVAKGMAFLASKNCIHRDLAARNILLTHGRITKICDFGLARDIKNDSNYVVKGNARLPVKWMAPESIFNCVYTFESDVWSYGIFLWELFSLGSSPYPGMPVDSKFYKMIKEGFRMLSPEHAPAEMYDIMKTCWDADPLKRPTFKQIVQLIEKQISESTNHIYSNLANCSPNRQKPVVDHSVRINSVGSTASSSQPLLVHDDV
T8 sequence (P28482 whole entry): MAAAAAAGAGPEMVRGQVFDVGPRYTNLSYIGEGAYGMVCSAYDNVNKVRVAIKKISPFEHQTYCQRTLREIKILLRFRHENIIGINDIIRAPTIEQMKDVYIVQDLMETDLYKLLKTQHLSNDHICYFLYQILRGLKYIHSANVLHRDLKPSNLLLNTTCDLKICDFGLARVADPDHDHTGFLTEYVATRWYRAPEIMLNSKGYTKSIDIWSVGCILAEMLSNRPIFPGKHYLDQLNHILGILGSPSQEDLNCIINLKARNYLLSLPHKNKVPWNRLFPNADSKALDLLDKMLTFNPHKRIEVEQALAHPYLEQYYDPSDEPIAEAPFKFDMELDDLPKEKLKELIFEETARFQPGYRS
T14 sequence (O94804 whole entry): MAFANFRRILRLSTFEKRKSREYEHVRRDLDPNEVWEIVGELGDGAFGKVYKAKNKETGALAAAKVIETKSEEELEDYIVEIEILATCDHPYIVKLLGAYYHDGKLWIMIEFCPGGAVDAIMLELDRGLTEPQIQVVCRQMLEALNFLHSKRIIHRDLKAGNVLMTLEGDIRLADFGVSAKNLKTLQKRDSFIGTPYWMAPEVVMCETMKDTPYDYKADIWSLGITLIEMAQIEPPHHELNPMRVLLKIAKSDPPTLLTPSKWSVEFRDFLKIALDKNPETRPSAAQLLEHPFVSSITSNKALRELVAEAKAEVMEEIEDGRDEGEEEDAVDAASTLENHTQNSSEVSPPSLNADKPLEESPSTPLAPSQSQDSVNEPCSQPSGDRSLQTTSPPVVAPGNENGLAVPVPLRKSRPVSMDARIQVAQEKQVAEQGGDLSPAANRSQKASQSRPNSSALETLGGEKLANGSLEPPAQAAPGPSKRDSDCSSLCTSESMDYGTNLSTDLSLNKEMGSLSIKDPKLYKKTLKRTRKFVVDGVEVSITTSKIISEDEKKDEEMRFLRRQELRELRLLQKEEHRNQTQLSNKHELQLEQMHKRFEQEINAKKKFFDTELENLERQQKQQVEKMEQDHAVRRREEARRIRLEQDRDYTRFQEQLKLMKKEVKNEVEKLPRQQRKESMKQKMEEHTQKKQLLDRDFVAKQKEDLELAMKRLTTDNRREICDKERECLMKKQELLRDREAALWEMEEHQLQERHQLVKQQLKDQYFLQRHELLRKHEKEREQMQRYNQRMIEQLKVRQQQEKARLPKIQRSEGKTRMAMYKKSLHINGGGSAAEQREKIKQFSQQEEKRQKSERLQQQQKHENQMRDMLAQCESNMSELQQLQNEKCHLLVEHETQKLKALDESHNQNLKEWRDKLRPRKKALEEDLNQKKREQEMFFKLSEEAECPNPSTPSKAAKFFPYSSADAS
T11 sequence (P49841 whole entry): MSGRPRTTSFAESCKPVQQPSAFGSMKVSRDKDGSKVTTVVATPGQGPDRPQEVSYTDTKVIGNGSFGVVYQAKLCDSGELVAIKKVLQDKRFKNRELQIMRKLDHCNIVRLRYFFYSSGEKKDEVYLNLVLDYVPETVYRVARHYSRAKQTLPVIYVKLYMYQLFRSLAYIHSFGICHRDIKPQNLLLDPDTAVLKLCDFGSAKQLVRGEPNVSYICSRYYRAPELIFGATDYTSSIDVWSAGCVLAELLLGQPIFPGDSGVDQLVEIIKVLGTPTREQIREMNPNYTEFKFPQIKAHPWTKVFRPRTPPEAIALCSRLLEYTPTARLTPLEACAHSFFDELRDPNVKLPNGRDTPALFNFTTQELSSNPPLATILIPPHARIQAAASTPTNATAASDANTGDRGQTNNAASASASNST

Structure (SMILES)	remaining binding at 1 µM (BMPR1B)	remaining binding at 1 µM (CDC2L1)	remaining binding at 1 µM (CDK3)	remaining binding at 1 µM (CSNK1G1)	remaining binding at 1 µM (EGFR(L858R))	remaining binding at 1 µM (EPHB2)	remaining binding at 1 µM (EPHB6)	remaining binding at 1 µM (ERK2)	remaining binding at 1 µM (FGFR2)	remaining binding at 1 µM (FRK)	remaining binding at 1 µM (GSK3B)	remaining binding at 1 µM (HPK1)	remaining binding at 1 µM (KIT-autoinhibited)	remaining binding at 1 µM (LOK)	remaining binding at 1 µM (RET(M918T))	remaining binding at 1 µM (RIOK2)
Clc1cc(NCC2CC2)c2ncc(-c3ccc4[nH]ncc4c3)n2n1 [compound 2, 6-Chloro-N-(cyclopropylmethyl)-3-(1H-indazol-5-yl)imidazo[1,2-b]pyridazin-8-amine]	100%	100%	95%	100%	68%	83%	68%	92%	85%	90%	99%	75%	82%	100%	100%	70%
O=C(CN1CCOCC1)N[C@H]1CC[C@H](Nc2cc(Cl)nn3c(-c4ccc5[nH]ncc5c4)cnc23)CC1 [compound 26]	100%	100%	90%	95%	83%	94%	89%	93%	91%	96%	92%	88%	34%	100%	92%	67%
CN1CCC(CNc2cc(Cl)nn3c(-c4cc5nc(Nc6ccccc6)[nH]c5cc4F)cnc23)CC1 [compound 31, 6-Chloro-3-(6-fluoro-2-(phenylamino)-1H-benzo[d]imidazol-5-yl)-N-((1-methylpiperidin-4-yl)methyl)imidazo[1,2-b]pyridazin-8-amine]	67%	92%	97%	100%	100%	96%	83%	99%	84%	92%	96%	97%	98%	91%	80%	61%
